Source: patent US20260297129A1, “PEPTIDES AS SELECTIVE IL-23 RECEPTOR INHIBITORS” (SANOFI, priority 2023, published 2026)
Where two headings read alike, the source gives them in different places. Numbered stars: 1 amine (or outer) side, 2 acyl side, 3 side chain; on linkers, the order of the positions; unused ones are H or OH. Bridge positions count the residues as written; N and C are the ends. Square brackets hold non-standard residues; d marks the D form. Peptide text beside a SMILES is read from it. * marks the point of attachment. Lys(Me,(CH2)4NMe(CH2)5CO) = CN(CCCCCC(=O)[*:3])CCCCN(C)CCCC[C@H](N[*:1])C(=O)[*:2]; Lys(Me,(CH2)4NMe(CH2)4CO) = CN(CCCCC(=O)[*:3])CCCCN(C)CCCC[C@H](N[*:1])C(=O)[*:2]; Trp(7-Me) = Cc1cccc2c(C[C@H](N)C(=O)O)c[nH]c12; Trp(1-Me) = Cn1cc(C[C@H](N)C(=O)O)c2ccccc21; NH(2-(3-pyridyl)ethyl) = c1cncc(CCN*)c1; αMeLys(Me2) = CN(C)CCCC[C@](C)(N)C(=O)O; 2Nal = N[C@@H](Cc1ccc2ccccc2c1)C(=O)O; 3Pal = N[C@@H](Cc1cccnc1)C(=O)O; Aun = NCCCCCCCCCCC(=O)O; Thp = NC1(C(=O)O)CCOCC1; Me2NCH2CH2 = CN(C)CC*; Aib = CC(C)(N)C(=O)O; Sar = CNCC(=O)O

Assays:
[1] = Protease stability in simulated intestinal fluids (FaSSIF) (Table 7); type: in vitro ADME; details: fassif with pancreatin, 37° C.; for remaining at 1 h, 1 µM: 60 min, read-out: Remaining percentage of peptide compound, FaSSIF 60 (min); for remaining at 2 h, 1 µM: 120 min, read-out: Remaining percentage of peptide compound, FaSSIF 120 (min); for remaining at 4 h, 1 µM: 240 min, read-out: Remaining percentage of peptide compound, FaSSIF 240 (min)
Procedure: (§1) Studies were carried out in simulated intestinal fluid (SIF) and simulated gastric fluid (SGF) to evaluate gastric stability of the peptide compounds disclosed herein.
Similarly, the term “Pancreatin-SIF” refers to a solution of simulated intestinal fluid containing pancreatin whereas “SIF-media” refers to a solution of simulated intestinal fluid without pancreatin. Pancreatin-SIF was prepared by dissolving 1 mg Pancreatin (MP Biomedicals) in 10 mL SIF media concentrate (PROSENSE).
(§2) Peptide compounds were first dissolved at 1 mM stock concentration in 0.01 HCl (+/−10% of DMSO) and were than diluted further with water to a stock concentration of 20 μM. Final peptide concentration in the incubation was 1 μM.
(§3) To 76 μL of the Pepsin-SGF buffer, 4 μL of the 20 μM peptide stock solution was added and incubated at 37° C. At each timepoint (0, 60, 120 and 240 minutes) the reaction was quenched with addition of 80 μL Ethanol (0.1% HCOOH). The samples were centrifuged for 20 minutes and an aliquot of the supernatant 100 μL were transferred to a LoBind-MTP plate and analyzed by LCMS/MS. The peak area response was calculated at each time point for each test compound. As internal reference, the peak area response of the same test compound at T0 was calculated. The percentage remaining at each timepoint was calculated based on the peak area response ratio of the test compound at T0. Time 0 was set to 100%, and all later timepoints were calculated relative to time 0.

[2] = Solubility of peptide compounds in buffer formulations (Table 5); type: physicochemical; details: target 1 mg/ml
Procedure: Prior to the solubility measurement of a peptide batch, its purity was determined through UHPLC/MS method A.
For solubility testing the target concentration was 1 mg pure compound/ml. Therefore, solutions from solid samples were prepared in a buffer system at a concentration of 1 mg/mL compound. The solid samples were obtained by drying down aliquots of a freshly prepared dimethyl sulfoxide stock solution using a THERMO SPEEDVAC vacuum centrifuge. The dry down time was 3 hours.
The following buffer systems were applied: • Solubility buffer system A) 50 mM HCl pH 1.2 • Solubility buffer system B) 50 mM phosphate buffer pH 6.5 • Solubility buffer system C) 50 mM phosphate buffer pH 7.4 • UHPLC-UV was performed using analytical method A after 2 hours of gentle agitation from the filtered (0.45 μm filter plates) solutions, which were obtained by 10 mins of centrifugation forced filtration at 1500 RCF (relative centrifugal acceleration).
The solubility was determined by the comparison of the UV peak area of 2 μL-injections of a buffered sample diluted 1:10 with a standard curve of a dimethyl sulfoxide reference sample of known concentration. The different extinction coefficients were taken into account for the calculation.

[3] = tested on: IL-23 induced STAT3 signaling (IL-23 receptor) in HEK-Blue IL-23 cells; test: Inhibition of IL-23 induced STAT3 signaling in HEK-Blue IL-23 cells, SEAP reporter (Table 9); type: cell-based; details: human IL23 0.25 ng/ml, overnight, read-out: Inhibition of IL-23 induced pSTAT3 (IC50 nM)
From the text: HEK-Blue™ IL-23 cells (INVIVOGEN) are designed for the detection of bioactive human (hIL-23) and murine IL-23 (mIL-23) by monitoring the activation of the STAT3 pathway. Binding of IL-23 to its receptor on the surface of HEK-Blue™ IL-23 cells triggers a signaling cascade leading to the activation of STAT3 and the subsequent production of secreted embryonic alkaline phosphatase (SEAP). This can be readily assessed using QUANTI-Blue™ Solution, a SEAP detection reagent.
HEK-Blue™ IL-23 cells were cultured as described by INVIVOGEN.
On the first day of assay 10 μL of the HEK-BLUE IL23 cell suspension (final concentration: 10,000 cells/well) and 10 μl of serially diluted peptides solutions were dispensed into a 384-well assay plate. After pre-incubation of the reaction mixtures at 37° C./5% CO2/95% humidity for 60 minutes, 10 μl of the humanIL23 cytokine (final concentration: 0.25 ng/ml) was added to each well for the STAT3 signaling activation. The plate was incubated overnight at 37° C./5% CO2/95% humidity.
On the second day 20 μl per well of QUANTI-BLUE detection solution (prepared according to the manufacture instruction) was dispensed into a new 384-well plate and followed by the transfer of 5 μl supernatant of the overnight incubated cell/sample mixtures. After incubation of 45 min at room temperature signals were measured with PHERASTAR (BMG) at OD 620-655 nm.
Dose response data were fitted with XLfit.

[4] = Protease stability in simulated gastric fluids (FaSSGF) (Table 7); type: in vitro ADME; details: fassgf with pepsin, 60 min, 37° C., read-out: Remaining percentage of peptide compound, FaSSGF 60 (min)
Procedure: as §1
For clarification, the term “Pepsin-SGF” refers to a solution of simulated gastric fluid containing pepsin whereas “SGF media” refers to a solution of simulated gastric fluid without pepsin. Pepsin-SGF was prepared by dissolving 320 mg Pepsin (Merck Millipore) in 100 mL SGF media concentrate (PROSENSE).
as §2
as §3, with “(0,1%” for “(0.1%”
as §3

[5] = Buffer pH 1.1 (head; method: 50 mM HCl pH 1.2), 2 h agitation, read-out: Solubility, Buffer pH 1.1
[6] = aqueous buffer, 50 mM phosphate buffer pH 6.5, 2 h agitation, read-out: Solubility, Buffer pH 6.5
[7] = aqueous buffer, 50 mM phosphate buffer pH 7.4, 2 h agitation, read-out: Solubility, Buffer pH 7.4

Structure (SMILES) | remaining at 1 h, 1 µM [1] | remaining at 2 h, 1 µM [1] | remaining at 4 h, 1 µM [1] | solubility at 2 h [2, 5] | solubility at 2 h [2, 6] | solubility at 2 h [2, 7] | remaining at 1 h, 1 µM [4] | IC50 [3]
CC(=O)NCCCC[C@@H]1NC(=O)[C@H](Cc2c[nH]c3ccccc23)NC(=O)CCCCN(C)CCCCN(C)CCCC[C@@H](C(=O)N[C@@H](CO)C(=O)N[C@@H](Cc2cccnc2)C(=O)N(C)CC(N)=O)NC(=O)C(C)(C)NC(=O)[C@H](Cc2ccc3ccccc3c2)NC(=O)[C@H](Cc2ccc(OCCN(C)C)cc2)NC(=O)C2(CCOCC2)NC1=O [compound 42] (WK(Ac)[Thp]Y(Me2NCH2CH2)[2Nal][Aib][Lys(Me,(CH2)4NMe(CH2)4CO)]S[3Pal][Sar]-NH2; lactam N-7) | 59% | 42% | 23% | ≥ 1010 µg/mL | ≥ 1030 µg/mL | ≥ 1040 µg/mL | 100% | 4.37 nM
CN(C)CCOc1ccc(C[C@@H]2NC(=O)C3(CCOCC3)NC(=O)[C@H](CCC(N)=O)NC(=O)[C@H](Cc3cn(C)c4ccccc34)NC(=O)CCCCN(C)CCCCN(C)CCCC[C@@H](C(=O)NCC(=O)NCCc3cccnc3)NC(=O)C(C)(C)NC(=O)[C@H](Cc3ccc4ccccc4c3)NC2=O)cc1 [compound 25] ([Trp(1-Me)]Q[Thp]Y(Me2NCH2CH2)[2Nal][Aib][Lys(Me,(CH2)4NMe(CH2)4CO)]G-{NH(2-(3-pyridyl)ethyl)}; lactam N-7) | 97% | 95% | 96% | ≥ 950 µg/mL | ≥ 890 µg/mL | ≥ 860 µg/mL | 98% | 42.5 nM
CC(=O)NCCCC[C@@H]1NC(=O)[C@H](Cc2c[nH]c3c(C)cccc23)NC(=O)CCCCCN(C)CCCCN(C)CCCC[C@@H](C(=O)NCC(=O)N[C@@H](Cc2cccnc2)C(=O)N(C)CC(N)=O)NC(=O)C(C)(C)NC(=O)[C@H](Cc2ccc3ccccc3c2)NC(=O)[C@H](Cc2ccc(OCCN(C)C)cc2)NC(=O)C2(CCOCC2)NC1=O [compound 27] ([Trp(7-Me)]K(Ac)[Thp]Y(Me2NCH2CH2)[2Nal][Aib][Lys(Me,(CH2)4NMe(CH2)5CO)]G[3Pal][Sar]-NH2; lactam N-7) | 97% | 94% | 94% | ≥ 980 µg/mL | ≥ 920 µg/mL | ≥ 960 µg/mL | 100% | 3.12 nM
Cc1cccc2c(C[C@@H]3NC(=O)CCCCCN(C)CCCCN(C)CCCC[C@@H](C(=O)NCC(=O)N[C@@H](Cc4cccnc4)C(=O)N(C)CC(N)=O)NC(=O)C(C)(C)NC(=O)[C@H](Cc4ccc5ccccc5c4)NC(=O)[C@H](Cc4ccc(OCCN(C)C)cc4)NC(=O)C4(CCOCC4)NC(=O)[C@H](CCC(N)=O)NC3=O)c[nH]c12 [compound 26] ([Trp(7-Me)]Q[Thp]Y(Me2NCH2CH2)[2Nal][Aib][Lys(Me,(CH2)4NMe(CH2)5CO)]G[3Pal][Sar]-NH2; lactam N-7) | 92% | 88% | 87% | ≥ 1000 µg/mL | ≥ 1010 µg/mL | ≥ 890 µg/mL | 95% | 2.32 nM

Continued, in another order:

remaining at 1 h, 1 µM [1] | remaining at 2 h, 1 µM [1] | remaining at 4 h, 1 µM [1] | solubility at 2 h [2, 5] | solubility at 2 h [2, 6] | solubility at 2 h [2, 7] | remaining at 1 h, 1 µM [4] | Structure (SMILES) | IC50 [3]
97% | 100% | 101% | ≥ 1150 µg/mL | ≥ 1170 µg/mL | ≥ 1010 µg/mL | 91% | CC(=O)NCCCC[C@@H]1NC(=O)[C@H](Cc2c[nH]c3c(C)cccc23)NC(=O)CCCCCCCCCCNC(=O)CC[C@@H](C(=O)N[C@@H](CC(N)=O)C(=O)N[C@@H](Cc2cccnc2)C(=O)N(C)CC(N)=O)NC(=O)[C@](C)(CCCCN(C)C)NC(=O)[C@H](Cc2ccc3ccccc3c2)NC(=O)[C@H](Cc2ccc(OCCN(C)C)cc2)NC(=O)C2(CCOCC2)NC1=O [compound 21] ([Aun][Trp(7-Me)]K(Ac)[Thp]Y(Me2NCH2CH2)[2Nal][αMeLys(Me2)]EN[3Pal][Sar]-NH2; lactam N-8) | 0.27 nM
97% | 91% | 91% | ≥ 1200 µg/mL | ≥ 1150 µg/mL | ≥ 1170 µg/mL | 98% | CC(=O)NCCCC[C@@H]1NC(=O)[C@H](Cc2c[nH]c3c(C)cccc23)NC(=O)CCCCN(C)CCCCN(C)CCCC[C@@H](C(=O)N[C@@H](CC(N)=O)C(=O)N[C@@H](Cc2cccnc2)C(=O)N(C)CC(N)=O)NC(=O)[C@](C)(CCCCN(C)C)NC(=O)[C@H](Cc2ccc3ccccc3c2)NC(=O)[C@H](Cc2ccc(OCCN(C)C)cc2)NC(=O)C2(CCOCC2)NC1=O [compound 47] ([Trp(7-Me)]K(Ac)[Thp]Y(Me2NCH2CH2)[2Nal][αMeLys(Me2)][Lys(Me,(CH2)4NMe(CH2)4CO)]N[3Pal][Sar]-NH2; lactam N-7) | 1.2 nM
